The text below walks through data of US20130177546A1, “METHOD FOR ENHANCING EFFICACY AND SELECTIVITY OF CANCER CELL KILLING BY DNA DAMAGING AGENTS” (MAINE INSTITUTE FOR HUMAN GENETICS AND HEALTH, priority 2011, published 2013).

The structures appear in SMILES notation.

Common to all, as to assay type: cell-based
For test [1], the system named is MCF7 (p53 wild-type) cells. The experiment in a line: Clonogenic survival assay after DNA damage, MCF7 cells expressing Arm1 or control shRNA. On the procedure:
(§1) MCF7 and SK-Br-3 cells were obtained from ATCC and maintained in DMEM or McCoys 5A supplemented with 10% FBS and antibiotics at 37° C., 5% CO2. A human Flag-tagged Arm1, Rev1, and p21 expression construct (Origene) were transiently transfected into SK-Br-3 cells with Fugene 6 (Roche) and extracts generated after 24 h. Lentiviral shRNA particles were obtained from Open Biosystems and stably expressing clones selected with puromycin and confirmed by GFP expression and Q-PCR (FIG. 10). […] Surviving colonies were stained with methylene blue and counted 2 weeks after treatments.
(§2) The results from this example are shown in FIG. 3. a, Arm1 promotes PCNA methyl esterification following DNA damage. PCNA was analyzed by 2D-PAGE immunoblotting in SK-Br-3 and MCF7 cells expressing Arm1 or non-targeting (control) shRNA in the absence of DNA damage or 4 h following Dox treatment or UV irradiation. b, PCNA-dependent methyltransferase activities are alter in shRNA expressing SK-Br-3 and MCF7 cells. WCE were assayed for PCNA-dependent carboxyl methyltransferase activity in the presence of His-PCNA ([…]) and average activities shown (±S.E.M.). Significance was determined using a two-tailed t-test. c, DNA damage sensitivity in Arm1 knockdown cells is related to p53 status. MCF7 (p53 wild-type) and SK-Br-3 (p53-mutant) cells were exposed to increasing levels of Dox and UV and survival determined by clonogenic survival. Average results from three independent experiments are presented ±SD. d, Arm1 knockdown promotes DNA repair. DNA repair rates were determined in shRNA expressing SK-Br-3 and MCF7 cells using host cell reactivation assay. Cells were transfected with UV-irradiated reporter plasmids and average repair rates were determined after 24 h. Average results from independent experiments are presented (±S.E.M.). Significance was determined with a two-tailed t-test.
In addition to PCNA modification in knock-down cells, we examined cell survival following DNA damage (FIG. 4b). […]

The test system of test [2] is SK-Br-3 (p53-mutant) cells. The experiment in a line: Clonogenic survival assay after DNA damage, SK-Br-3 cells expressing Arm1 or control shRNA. The settings on record: for survival: 0.5 mM DOX; for cells surviving: 0.0025% MMS. How it is done:
as §1, §2
In addition to PCNA modification in knock-down cells, we examined cell survival following DNA damage (FIG. 4b). […] In MCF7 cells with knocked-down Arm1 expression 47% of cells survived 0.5 mM DOX compared to 15% survival in the control cells (FIG. 4b). Similar results were consistently observed in response to UV with 39% of the Arm1 knock-down cells surviving 25 J/m^2 compared to 19% in the control. […] Additionally, because ˜50% of tumours harbour p53 mutations and knock-down of Arm1 expression in p53-mutant breast tumours appeared to sensitize the cells to DNA damage, inhibition of Arm1 may ultimately allow us to more effectively target tumour cells.

The test system of test [3] is p21^WAF1/CIP1. The experiment in a line: p21 expression in Dox-treated MCF7 cells (SDS-PAGE, immunoblot). The settings on record: MCF7 cells following Dox treatment. How it is done:
The results from this example are shown in FIG. 2. a, Doxorubicin (Dox) promotes PCNA methyl esterification in MCF7 cells. Whole cell extracts (WCE) from cultures treated with Dox ([…]) were resolved by 2D-PAGE followed by PCNA immunoblotting (IB). The basic-shifted PCNA isoform (ME-PCNA) is identified with an arrow. b, PCNA-dependent methyltransferase activity is altered following Dox treatment. Dox treated MCF7 WCE were assayed for PCNA-dependent activity in triplicate using the vapour diffusion assay, and average activities are presented ±S.E.M. Significance was determined using a two-tailed t-test. c, Dox induces p21 expression in MCF7 cells. Extracts were separated by SDS-PAGE and immunoblotted for p21^Waf1/Cip1. d, p21 binding promotes PCNA methyl esterification. Untreated MCF7 extracts were incubated with GST, GST-p21 (full-length), and GST-p21(PIP) proteins bound to glutathione Sepharose for 2 h at 4° C. prior to 2D-PAGE and PCNA immunoblotting. e The p21-induced basic shift is a result of PCNA methyl esterification. p21(PIP) peptide was covalently coupled to CH-Sepharose and used to affinity purify PCNA from MCF7 whole cell extracts. Purified fractions were separated by 2D-PAGE and stained with colloidal Coomassie blue. Spots were excised from the gel, digested with trypsin, and analyzed by LC-MS/MS. […]

For `COc1cccc2c1C(=O)c1c(O)c3c(c(O)c1C2=O)C[C@@](O)(C(=O)CO)C[C@@H]3O[C@H]1C[C@H](N)[C@H](O)[C@H](C)O1` [DOX, doxorubicin], the cells survived in test [1] (MCF7 cells with knocked-down Arm1 expression, 0.5 mM DOX) came to 47%. The survival is 15% in test [1] (MCF7 control cells, 0.5 mM DOX); 3% in test [2] (SK-Br-3 cells with knock-down of Arm1 expression); 18% in test [2] (SK-Br-3 control cells). Further, the “increased expression of p21^WAF1/CIP1” value in test [3] is reported as over 27 fold.
`COS(C)(=O)=O` [MMS]: the “survival of Arm1 knock-down cells compared to control cells” value in test [1] (MCF7 Arm1 knock-down cells, response to MMS) is recorded as “enhanced survival”. The cells surviving in test [2] (SK-Br-3 Arm1 knock-down cells) is reported as 4%; in test [2] (SK-Br-3 control cells) it was 12%.
